Source: ChEMBL document CHEMBL4251574, “Design, synthesis, and biological evaluation of new 1,2,3-triazolo-2'-deoxy-2'-fluoro- 4'-azido nucleoside derivatives as potent anti-HBV agents” (Eur J Med Chem, 2018)

How the values were obtained:
[1] = tested on: Hepatitis B virus; experiment: Antiviral activity against Hepatitis B virus infected in human HepG2.2.15 cells assessed as inhibition of HBeAg secretion at 5 uM after 9 days by ELISA relative to control; type: functional; conditions: HepG2.2.15, 216 h
[2] = tested on: Hepatitis B virus; experiment: Antiviral activity against Hepatitis B virus infected in human HepG2.2.15 cells assessed as inhibition of HBsAg secretion at 5 uM after 9 days by ELISA relative to control; type: functional; conditions: HepG2.2.15, 216 h
[3] = tested on: HepG2 2.2.15; experiment: Cytotoxicity against human HepG2.2.15 cells after 9 days by MTT assay; type: functional; conditions: HepG2 2.2.15, 216 h
[4] = tested on: Hepatitis B virus; experiment: Antiviral activity against Hepatitis B virus harboring rtV173L/L180M/M204V mutant infected in HepGRL1 cells assessed as inhibition of intracellular HBV DNA level at 20 uM measured on day 9 by FQ-PCR analysis relative to control; type: functional; conditions: 216 h
[5] = tested on: Duck hepatitis B virus; experiment: Antiviral activity against DHBV infected in duck assessed as inhibition of viral DNA level in serum at 10 mg/kg, po administered once daily measured on day 15 by SYBR Green I dye-based FQ-PCR analysis relative to control; type: functional; conditions: 360 h
[6] = tested on: Hepatitis B virus; experiment: Antiviral activity against Hepatitis B virus infected in human HepG2.2.15 cells assessed as inhibition of HBsAg secretion at 20 uM after 9 days by ELISA relative to control; type: functional; conditions: HepG2.2.15, 216 h
[7] = tested on: Hepatitis B virus; experiment: Antiviral activity against Hepatitis B virus infected in human HepG2.2.15 cells assessed as inhibition of HBeAg secretion at 20 uM after 9 days by ELISA relative to control; type: functional; conditions: HepG2.2.15, 216 h
[8] = tested on: Hepatitis B virus; experiment: Antiviral activity against Hepatitis B virus harboring rtV173L/L180M/M204V mutant infected in HepGRL1 cells assessed as inhibition of intracellular HBV DNA level at 20 uM measured on day 6 by FQ-PCR analysis relative to control; type: functional; conditions: 144 h
[9] = tested on: Hepatitis B virus; experiment: Antiviral activity against Hepatitis B virus infected in human HepG2.2.15 cells assessed as inhibition of intracellular HBV DNA level at 20 uM measured on day 9 by FQ-PCR analysis; type: functional; conditions: HepG2.2.15, 216 h
[10] = tested on: Duck hepatitis B virus; experiment: Antiviral activity against DHBV infected in duck assessed as inhibition of viral DNA level in serum at 10 mg/kg, po administered once daily measured on day 10 by SYBR Green I dye-based FQ-PCR analysis relative to control; type: functional; conditions: 240 h
[11] = tested on: Hepatitis B virus; experiment: Antiviral activity against Hepatitis B virus infected in human HepG2.2.15 cells assessed as intracellular HBV DNA levels at 20 uM measured on day 6 by FQ-PCR analysis; type: functional; conditions: HepG2.2.15, 144 h
[12] = tested on: Duck hepatitis B virus; experiment: Antiviral activity against DHBV infected in duck assessed as inhibition of viral DNA level in liver at 10 mg/kg, po administered once daily measured on day 15 by SYBR Green I dye-based FQ-PCR analysis relative to control; type: functional; conditions: 360 h
[13] = tested on: Duck hepatitis B virus; experiment: Antiviral activity against DHBV infected in duck assessed as inhibition of viral DNA level in liver at 10 mg/kg, po administered once daily measured on day 10 by SYBR Green I dye-based FQ-PCR analysis relative to control; type: functional; conditions: 240 h
[14] = tested on: Human immunodeficiency virus 1; experiment: Antiviral activity against HIV1 infected in human C8166 cells assessed as reduction in viral infection by measuring inhibition of syncytia formation incubated for 3 to 7 days by p24 detection based ELISA; type: functional, organism-based; conditions: Human immunodeficiency virus 1, C8166

`[N-]=[N+]=N[C@]1(CO)O[C@@H](n2cc(-c3nnn[nH]3)nn2)[C@@H](F)[C@@H]1O` gave an inhibition at 5 µM [1] of 20%, an inhibition at 5 µM [2] of 40% and a CC50 [3] of over 1 mM.
For `[N-]=[N+]=N[C@]1(CO)O[C@@H](n2cc(C3CC3)nn2)[C@@H](F)[C@@H]1O`, the inhibition at 5 µM [1] was 26.2%, the inhibition at 5 µM [2] was 28.9% and the CC50 [3] was over 1 mM.
`COC(=O)c1cn([C@@H]2O[C@@](CO)(N=[N+]=[N-])[C@@H](O)[C@@H]2F)nn1` gave an inhibition at 5 µM [1] of 12.3%, an inhibition at 5 µM [2] of 22% and a CC50 [3] of 0.115 mM.
Work on `Nc1ccn([C@@H]2CS[C@H](CO)O2)c(=O)n1` [LAMIVUDINE] yielded an inhibition at 20 µM [4] of 12.9%, an inhibition in vivo at 10 mg/kg [5] of 85.7% and an inhibition at 20 µM [6] of 47.7%. It also gave an inhibition at 20 µM [7] of 22.1%, an inhibition at 20 µM [8] of 10.8% and an inhibition at 20 µM [9] of 85.7%. It also gave an inhibition in vivo at 10 mg/kg [10] of 65.2%, an inhibition at 20 µM [11] of 75.4% and an inhibition in vivo at 10 mg/kg [12] of 75.6%. The inhibition in vivo at 10 mg/kg [13] was 57.1% and the CC50 [3] was over 1 mM.
Compound `[N-]=[N+]=N[C@]1(CO)O[C@@H](n2ccc(N)nc2=O)[C@@H](F)[C@@H]1O` [RO-0622] has an EC50 [14] of 0.3 nM.
